Paper PMC12693416, “From Lipid Regulation to Neuroprotection: Multitarget (Benzo)thiazine Derivatives as Promising Leads” (Molecules, 2025)
Like-named read-outs stand apart in the source and are kept apart here.

Tests used:
[1] = Iron chelation (ferrozine assay); conditions: 100 μM compound, Fe2+ 20 μM
Method: […] The reaction was initiated with the addition of a 100 μM aqueous ferrozine solution, which chelates iron ions, resulting in an increased maximum absorbance at 562 nm. After incubation at 37 °C for 10 min, the mixture’s absorbance is measured at 562/700 nm. Each value is expressed as the mean of 3 tests per sample [46].

hyperlipidaemic mice = assay: Tyloxapol (Triton WR 1339)-induced hyperlipidemia, plasma lipid parameters; type: in vivo; conditions: Mus musculus, ip, 24 h, i.p. 84 μmol/kg, 24 h
Method: An aqueous solution of Triton WR 1339 was given i.p. to mice (400 mg/kg of body weight) and one hour later the test compounds (84 μmol/kg of body weight), dissolved in saline or saline only, were administered i.p. After 24 h, blood was taken from the aorta/heart and used for the determination of plasma total cholesterol (TC), triglyceride (TG) levels, and high-density lipoprotein (HDL) levels, using commercially available kits (Biosis Cholesterol Enzymatic/PAP, Biosis Triglycerides GPO/PAP, and Biosis HDL Phosphovolframic, Biosis, Athens Greece). Levels of plasma lipids were determined in duplicate while values presented are the mean from 8 animals (per compound). The levels of low-density lipoprotein (LDL) are calculated according to the equation: LDL (mg/dL) = 3/4 * (TC-HDL).

[2] = system: carrageenan-induced mouse paw edema; assay: Carrageenan-induced mouse paw edema; type: in vivo, C57BL/6 mice; conditions: ip, 3.5 h, i.p. 0.30 mmol/kg, female C57BL/6, 3.5 h after carrageenan, read-out: % Edema (decrease of carrageenan-induced paw edema vs control)
Method: For the in vivo anti-inflammatory activity, C57BL/6 mice were injected with 0.025 mL carrageenan (2% w/v solution in saline) i.d. into the right hind paw, the left paw serving as control. The test compounds dissolved in saline (300 μmol/kg) were given i.p. right after the carrageenan injection, and 3.5 h later the produced edema was estimated as paw weight increase. Results are expressed as percentage of reduction in paw-edema and are the mean of 6 animals (per compound).

[3] = system: mouse liver microsomal lipid peroxidation; assay: Inhibition of mouse liver microsomal lipid peroxidation (LP); conditions: read-out: LP IC50 Value; 45 min incubation
[4] = biological target: T1, acetylcholinesterase from eel (Electrophorus electricus, UniProt O42275); assay: Acetylcholinesterase (AChE) inhibition (Ellman); type: biochemical; conditions: read-out: AChE Inhibition (%), 300 μM compound
T1 construct: purchased Sigma
Method: (0.31 mM) in phosphate buffer with pH = 7. The incubation mixture is monitored for 7 min at 37 °C.

[5] = biological target: soybean lipoxygenase (LOX-3); assay: Soybean lipoxygenase (LOX-3) inhibition; type: biochemical; conditions: after 5 min of incubation; sodium linoleate 100 μM, pH 9.0
Method: Lipoxygenase (LOX) inhibitory activity was determined using soybean lipoxygenase (250 U/mL) and sodium linoleate (100 μM) as substrate, in Tris–HCl buffer pH 9.0.

[6] = Radical scavenging of DPPH; conditions: DPPH 200 μM, 30 min incubation
Method: Compounds, dissolved in absolute methanol, at concentrations of 25–400 μM, were added to an equal volume of a methanolic solution of DPPH (final concentration 200 μM) at room temperature (22 ± 2 °C).

[7] = system: plasma of hyperlipidaemic mice; assay: Total antioxidant capacity (TAC) of plasma in hyperlipidaemic mice; type: in vivo; conditions: Mus musculus, ip, 24 h, i.p. 84 μmol/kg, read-out: Total Antioxidant Capacity (TAC) Increase (%)
AChE = conditions: read-out: IC50 against AChE; cited from earlier work
[8] = plasma, vs tyloxapol control, read-out: % HDL Increase
[9] = ratio calculated, read-out: % HDL/LDL Increase (antiatherogenic index)
[10] = LDL calculated as 3/4*(TC-HDL), read-out: % LDL Decrease
[11] = plasma, vs tyloxapol control, read-out: % Total Cholesterol (TC) Reduction
[12] = plasma, vs tyloxapol control, read-out: % Triglycerides (TG) Reduction

T1 sequence (O42275 24-633): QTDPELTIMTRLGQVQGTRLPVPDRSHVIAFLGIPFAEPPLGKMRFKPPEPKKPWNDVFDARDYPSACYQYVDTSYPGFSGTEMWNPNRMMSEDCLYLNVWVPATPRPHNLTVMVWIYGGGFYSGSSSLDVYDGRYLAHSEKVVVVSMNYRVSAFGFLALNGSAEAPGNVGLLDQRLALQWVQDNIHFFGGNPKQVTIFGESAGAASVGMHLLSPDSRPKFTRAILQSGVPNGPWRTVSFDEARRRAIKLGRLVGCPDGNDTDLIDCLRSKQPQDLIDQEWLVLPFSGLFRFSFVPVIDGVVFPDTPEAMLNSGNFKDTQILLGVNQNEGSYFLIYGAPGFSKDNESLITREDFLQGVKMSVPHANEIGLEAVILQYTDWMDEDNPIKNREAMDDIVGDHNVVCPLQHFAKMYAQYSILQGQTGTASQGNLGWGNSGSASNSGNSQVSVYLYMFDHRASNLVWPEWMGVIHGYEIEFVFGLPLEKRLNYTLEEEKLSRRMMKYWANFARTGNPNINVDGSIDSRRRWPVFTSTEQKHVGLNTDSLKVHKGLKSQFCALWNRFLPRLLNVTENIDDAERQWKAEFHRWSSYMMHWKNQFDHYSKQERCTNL

SMILES	% of Fe(II) Chelation (at 100 μM) [1] [%]	change in vivo at 84 µmol/kg (hyperlipidaemic mice; [8]) [%]	change in vivo at 84 µmol/kg (hyperlipidaemic mice; [9]) [%]	inhibition in vivo at 84 µmol/kg (hyperlipidaemic mice; [10]) [%]	inhibition in vivo at 84 µmol/kg (hyperlipidaemic mice; [11]) [%]	inhibition in vivo at 84 µmol/kg (hyperlipidaemic mice; [12]) [%]	inhibition in vivo at 300 µmol/kg [2] [%]	IC50 [3] [µM]	inhibition at 300 µM [4] [%]	IC50 [5] [µM]	IC50 [6] [µM]	change in vivo at 84 µmol/kg [7] [%]	IC50 (AChE) [µM]
COc1ccc(/C=C/C(=O)N2CCSC(c3ccc(-c4ccccc4)cc3)C2)cc1OC (stereo not drawn) [Compound 2, (E)-1-(2-([1,1′-Biphenyl]-4-yl)thiomorpholino)-3-(3,4-dimethoxyphenyl)prop-2-en-1-one]	18	44	122	53	30	60	≤ 60	> 1000	26	> 300	> 400	43	
COc1cc(C(=O)N2CC(c3ccc(-c4ccccc4)cc3)Sc3ccccc32)cc(OC)c1OC (stereo not drawn) [Compound 14, (2-([1,1′-Biphenyl]-4-yl)-2,3-dihydro-4H-benzo[b][1,4]thiazin-4-yl)(3,4,5-trimethoxyphenyl)methanone]	6	13		73	51	50	38	> 1000	~45	71	> 400	144	
O=C(/C=C/c1ccc(O)c(O)c1)O[C@@H]1C[C@](O)(C(=O)O)C[C@@H](O)[C@H]1O [chlorogenic acid]													~277
O=C(/C=C/c1ccccc1)N1CCSC(c2ccc(-c3ccccc3)cc2)C1 (stereo not drawn) [Compound 8, (E)-1-(2-([1,1′-Biphenyl]-4-yl)thiomorpholino)-3-phenylprop-2-en-1-one]	5	9	91	57	45	53	46	> 1000	19	> 200	> 400	104	
CC(C)(C)c1cc(C(=O)N2CC(c3ccc(-c4ccccc4)cc3)Sc3ccccc32)cc(C(C)(C)C)c1O (stereo not drawn) [Compound 15, (2-([1,1′-Biphenyl]-4-yl)-2,3-dihydro-4H-benzo[b][1,4]thiazin-4-yl)(3,5-ditertbutyl-4-hydroxyphenyl)methanone]	8	79		74	55	35	31	> 500	23	83	> 400	131	
COc1cc(C(=O)N2CCSC(c3ccc(-c4ccccc4)cc3)C2)cc(OC)c1OC (stereo not drawn) [Compound 4]	4	95		5	10	35	44	> 500	30	71	> 400	87	
COc1cc(C(=O)O)cc(OC)c1O [syringic acid]													~149
CC(C)Cc1ccc(C(C)C(=O)N2CC(c3ccc(-c4ccccc4)cc3)Sc3ccccc32)cc1 (stereo not drawn) [Compound 17, 1-(2-([1,1′-Biphenyl]-4-yl)-2,3-dihydro-4H-benzo[b][1,4]thiazin-4-yl)-2-(4-isobutylphenyl)propan-1-one]	29	43		68	45	58	39	> 1000	13	104	> 400	139	
COc1ccc(/C=C/C(=O)N2CC(c3ccc(-c4ccccc4)cc3)Sc3ccccc32)cc1OC (stereo not drawn) [Compound 12, (E)-1-(2-([1,1′-Biphenyl]-4-yl)-2,3-dihydro-4H-benzo[b][1,4]thiazin-4-yl)-3-(3,4-dimethoxyphenyl)prop-2-en-1-one]	17	63		59	27	29	43	> 1000	17	74	> 400	203	
